Measurements from patent US20250092360A1, “METHODS AND COMPOSITIONS FOR GENERATING SOMATOSTATIN+ INTERNEURONS FROM HUMAN FOREBRAIN NEURAL PROGENITOR CELLS” (Trailhead Biosystems Inc., priority 2023, published 2025).
Entries after “also recorded” stand apart in the source; their conditions may differ.

Experiments:
Format in all cases: cell-based, human
[1] = test system: medial ganglionic eminence (MGE)-derived neural progenitors; assay: HD-DoE stage 4, 12-factor experiment: SOX6 expression; details: for impact on expression of SOX6: dynamic profile, in words; for factor contribution, expression of SOX6: significant negative effect, model optimized for maximal SOX6
Excerpt: These effectors are small chemical compounds or proteins. They are commonly used during the differentiation of stem cells to specific cell linage. The choice of the effectors was based on the current literature on forebrain neural induction and differentiation of neural progenitor cells to mature neurons.
To evaluate the effectors on SST differentiation, experiments with 8 or 12 factors were designed to assess the responses of cells to 48 or more combinations of effectors in a range of concentrations. To analyze the models, we focused on expression of genes involved in development and patterning of the forebrain interneurons maturation including LHX6 (Liodis et al. (2007) J. Neurosci. 27:3078-3089; Yuan et al. (2018) Elife 7: e37382), SOX6 (Azim et al. (2009) Nature Neurosci. 12:1238-1247; Batista-Brito et al. (2009) Neuron 63:466-481), DLX5 (de Lombares et al. (2019) Aging (Albany NY) 11:6638; Wang et al. (2010) J. Neurosci. 30:5334-5345) and ASCL1 (Barretto et al. (2020) J. Neurosci. Meth. 334:108548; Shi et al. (2016) J. Biol. Chem. 291:13560-13570). At later stages we focused on interneuron maturation genes including somatostatin and absence of Parvalbumin (Horn and Nicoll (2018) Proc. Natl. Acad. Sci. 115:589-594). The impacts of each effector on gene expression level are defined by a parameter called factor contribution that is calculated for each effector during the modeling.
To identify the recipe for differentiation at stage 4, at least 48 different combinations of effectors were robotically prepared by the Design-of-Experiments compression through D-optimality. The effector combinations were prepared in a basal media and were subsequently added to the cells, which were then allowed to differentiate. Three days later, RNA extraction was performed, and gene expression levels were examined using quantitative PCR analysis. The data was normalized and modeled using partial least squares regression analysis to the effector design, resulting in the generation of gene-specific models, which after model tuning for maximal predictive power, provided explanation of the effectors ability to control the expression of individual genes, combinatorically, and individually. Solutions within the tested space could then be explored to address desirability.
IGF-1 activates the IGF-1 pathway, promotes neuron axonal growth, and establishes the synapse of interneurons. GDNF is the […] and can activate the GDNF pathway. MK2206 is an AKT inhibitor and can inhibit cell proliferation and promote neuronal maturation. PD173074 and BLU-554 are FGFR inhibitors. The FGF pathway is required for the maintenance of neural progenitor cells. Inhibition of the FGFR pathway promotes neural maturation. GSI-XX is a notch pathway inhibitor. Notch pathway inhibits neural progenitor cell differentiation. Inhibition of the Notch pathway promotes neural differentiation.
To find the set of factors that have the potential to optimize SOX6 in this experiment, a new assessment was done through dynamic profile analysis with focus on maximal expression of SOX6.

[2] = test system: forebrain-committed neural stem cells; assay: Factor criticality analysis, stage 2 recipe; details: for expression level of PAX6 when the factor is removed / expression level of NKX2-2 when the factor is removed / expression level of NKX2-1 when the factor is removed: other three stage 2 factors present; for expression level of PAX6 when the factor is removed: 0 with all four factors; for expression level of NKX2-2 when the factor is removed: 100 with all four factors; for expression level of NKX2-1 when the factor is removed: 5000 with all four factors
Procedure: (§1) To assess the impact of the elimination of each validated factor, dynamic profile analysis was used and compared the expression level of genes of interest in absence of each finalized factor while others are present.
In the stage 2 recipe, each of the four finalized factors were removed while the other three factors remained present and expression levels of NKX2-1, PAX6 and NKX2-2 were assessed compared to presence of all four factors. Absence of PD0325901 reduced the levels of NKX2-1 and NKX2-2 while increasing PAX6 from 5000 to 3200, 100 to 0 and 0 to 5000, respectively. […] Removing XAV939 reduced the levels of NKX2-1 from 5000 to 3000, while increasing both PAX6 and NKX2-2 to 10000 and 200, respectively. Another observation was the interaction between XAV939 and Purmorphamine. In the absence of XAV939, the impact of Purmorphamine on NKX2-1 became negative and, as it is shown in interaction plot of FIG. 14, the level of NKX2-1 is higher when both factors are present.

[3] = test system: stage 2 neural stem cells; assay: HD-DoE stage 3 experiment: ASCL1, LHX6, DLX1 expression
Procedure: To further guide the cells to medial ganglionic eminence progenitor fate, an additional HD-DoE experiment was performed for 3 days on cells that were treated with stage 1 and stage 2 media for total of 6 days prior to start of the experiment. This experiment included 13 effectors, LDN193189, A8301, GNF5837, AZD3147, GSI-XX, Takinib, PD0325901, PD173074, BLU9931, IGF-1, MHY1485, Purmorphamine and Prostratin. In this model, we focused on maximum expression of genes expressed in neuronal progenitor cells in medial ganglionic eminence (MGE) region including ASCL1, LHX6 and DLX1 (Silberberg et al. (2016) Neuron 92:59-74). When the model was optimized for maximum expression of ASCL1 at 1700, A8301, GSI-XX, Purmorphamine and Takinib, which is an inhibitor of TAK1 pathway, had the highest factor contributions, 18.1, 14.1, 12.7 and 10.1 respectively. […] MHY 1485 also had positive contribution however the factor was below 2 (FIG. 9).
Therefore, six effectors including A8301, GSI-XX, Takinib, GNF5837, IGF-1 and Purmorphamine were finalized as ingredients of stage 3 differentiation media. A representative recipe for Stage 3 differentiation is summarized below in Table 3.

[4] = test system: stage 2 neural stem cells; assay: Factor criticality analysis, stage 3 recipe; details: other five stage 3 factors present
Procedure: as §1
In the stage 3 recipe, each of the six finalized factors were removed while the other five factors remained present and the expression levels of ASCL1, DLX1 and LHX6 were assessed compared to the presence of all six factors. […] As expected, in the absence of IGF-1, the value of DLX1 increases to 410, however, ASCL1 and LHX6 decreased to 1390 and 220, respectively.

SMILES	impact on expression of SOX6 [1]	factor contribution, expression of SOX6 [1]	expression level of PAX6 when the factor is removed [2]	expression level of NKX2-2 when the factor is removed [2]	expression level of NKX2-1 when the factor is removed [2]	impact on NKX2-1 in the absence of XAV939 ([2]; interaction plot FIG. 14)	impact on expression of ASCL1 ([3]; dynamic profile, in words)	impact on expression of DLX1 ([3]; dynamic profile, in words)	impact on expression of LHX6 ([3]; dynamic profile, in words)	factor contribution, expression of ASCL1 ([3]; positive, model optimized for maximum ASCL1 at 1700)	expression level of DLX1 when the factor is removed ([4]; 220 with all six factors)	expression level of LHX6 when the factor is removed ([4]; 240 with all six factors)	expression level of ASCL1 when the factor is removed ([4]; 1650 with all six factors)
c1ccc2c(-c3cnn4cc(-c5ccc(N6CCNCC6)cc5)cnc34)ccnc2c1 [LDN193189]	negative effect	9.8	below 0	below 0	did not significantly change	–	–	–	–	–	–	–	–
O=C(NOC[C@H](O)CO)c1ccc(F)c(F)c1Nc1ccc(I)cc1F [PD0325901]	negative effect	5.1	5000	0	3200	–	–	–	–	–	–	–	–
c1ccc2c(Oc3nc(Nc4ccc(N5CCOCC5)cc4)c4ncn(C5CCCCC5)c4n3)cccc2c1 [Purmorphamine]	–	–	–	–	–	negative	positive trends; also recorded: Positive impact	did not have a significant negative impact	positive trends; also recorded: Positive impact	12.7	stayed the same	190	1200
